Laboratory results: patent US10206394B2, “Herbicidal compounds” (Syngenta Participations AG, priority 2014, dated 2019)
Read-outs that look alike come from different tables or passages of the source.

Columns and labels:
Test in all cases: Glasshouse assay for herbicidal activity (pre- and post-emergence), percentage phytotoxicity
Type in all cases: in vivo
[1] = tested on: Echinochloa crus-galli (ECHCG); settings: Echinochloa crus-galli
Summary of the method: (§1)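 Visual phytotoxicity score, 0% = undamaged to 100% = total kill, read 20 days after treatment for PRE and 15 days for POST. Pots of standard soil; treatment at day 1 (PRE) or roughly day 12 (POST). Glasshouse: 16 h photoperiod, 65% RH, 24/18 or 20/16 °C by climate type.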

[2] = tested on: Alopecurus myosuroides (ALOMY); settings: Alopecurus myosuroides
Summary of the method: as §1

[3] = tested on: Avena fatua (AVEFA); settings: Avena fatua
Summary of the method: as §1

[4] = tested on: Lolium perenne (LOLPE); settings: Lolium perenne
Summary of the method: as §1

[5] = post-emergence, 360 h, Rate 250 g/ha, post-emergence, assessed visually 15 DAA, 100%=total damage, 0%=no damage, read-out: Post-emergence herbicidal activity (percentage phytotoxicity) ECHCG POST
[6] = pre-emergence, 480 h, Rate 250 g/ha, pre-emergence, assessed visually 20 DAA, 100%=total damage, 0%=no damage, read-out: Pre-emergence herbicidal activity (percentage phytotoxicity) ECHCG PRE
[7] = post-emergence, 360 h, Rate 250 g/ha, post-emergence, assessed visually 15 DAA, 100%=total damage, 0%=no damage, read-out: Post-emergence herbicidal activity (percentage phytotoxicity) ALOMY POST
[8] = pre-emergence, 480 h, Rate 250 g/ha, pre-emergence, assessed visually 20 DAA, 100%=total damage, 0%=no damage, read-out: Pre-emergence herbicidal activity (percentage phytotoxicity) ALOMY PRE
[9] = post-emergence, 360 h, Rate 250 g/ha, post-emergence, assessed visually 15 DAA, 100%=total damage, 0%=no damage, read-out: Post-emergence herbicidal activity (percentage phytotoxicity) AVEFA POST
[10] = pre-emergence, 480 h, Rate 250 g/ha, pre-emergence, assessed visually 20 DAA, 100%=total damage, 0%=no damage, read-out: Pre-emergence herbicidal activity (percentage phytotoxicity) AVEFA PRE
[11] = post-emergence, 360 h, Rate 250 g/ha, post-emergence, assessed visually 15 DAA, 100%=total damage, 0%=no damage, read-out: Post-emergence herbicidal activity (percentage phytotoxicity) LOLPE POST
[12] = pre-emergence, 480 h, Rate 250 g/ha, pre-emergence, assessed visually 20 DAA, 100%=total damage, 0%=no damage, read-out: Pre-emergence herbicidal activity (percentage phytotoxicity) LOLPE PRE
[13] = post-emergence, 360 h, Rate 250 g/ha, post-emergence, visual assessment 15 DAA, 100%=total damage, 0%=no damage, read-out: Post-emergence herbicidal activity (percentage phytotoxicity) ECHCG POST
[14] = pre-emergence, 480 h, Rate 250 g/ha, pre-emergence, visual assessment 20 DAA, 100%=total damage, 0%=no damage, read-out: Pre-emergence herbicidal activity (percentage phytotoxicity) ECHCG PRE
[15] = post-emergence, 360 h, Rate 250 g/ha, post-emergence, visual assessment 15 DAA, 100%=total damage, 0%=no damage, read-out: Post-emergence herbicidal activity (percentage phytotoxicity) ALOMY POST
[16] = pre-emergence, 480 h, Rate 250 g/ha, pre-emergence, visual assessment 20 DAA, 100%=total damage, 0%=no damage, read-out: Pre-emergence herbicidal activity (percentage phytotoxicity) ALOMY PRE
[17] = post-emergence, 360 h, Rate 250 g/ha, post-emergence, visual assessment 15 DAA, 100%=total damage, 0%=no damage, read-out: Post-emergence herbicidal activity (percentage phytotoxicity) AVEFA POST
[18] = pre-emergence, 480 h, Rate 250 g/ha, pre-emergence, visual assessment 20 DAA, 100%=total damage, 0%=no damage, read-out: Pre-emergence herbicidal activity (percentage phytotoxicity) AVEFA PRE
[19] = post-emergence, 360 h, Rate 250 g/ha, post-emergence, visual assessment 15 DAA, 100%=total damage, 0%=no damage, read-out: Post-emergence herbicidal activity (percentage phytotoxicity) LOLPE POST
[20] = pre-emergence, 480 h, Rate 250 g/ha, pre-emergence, visual assessment 20 DAA, 100%=total damage, 0%=no damage, read-out: Pre-emergence herbicidal activity (percentage phytotoxicity) LOLPE PRE

SMILES	pest or weed control at 250 g/ha [1, 5] [%]	pest or weed control at 250 g/ha [1, 6] [%]	pest or weed control at 250 g/ha [2, 7] [%]	pest or weed control at 250 g/ha [2, 8] [%]	pest or weed control at 250 g/ha [3, 9] [%]	pest or weed control at 250 g/ha [3, 10] [%]	pest or weed control at 250 g/ha [4, 11] [%]	pest or weed control at 250 g/ha [4, 12] [%]	pest or weed control at 250 g/ha [1, 13] [%]	pest or weed control at 250 g/ha [1, 14] [%]	pest or weed control at 250 g/ha [2, 15] [%]	pest or weed control at 250 g/ha [2, 16] [%]	pest or weed control at 250 g/ha [3, 17] [%]	pest or weed control at 250 g/ha [3, 18] [%]	pest or weed control at 250 g/ha [4, 19] [%]	pest or weed control at 250 g/ha [4, 20] [%]	further results
CC#Cc1cc(C)c(C2C(=O)CC(CC(=O)N(C)CCC)C2=O)c(CC)c1 (stereo not drawn) [Compound A79]	100	100	100	100	100	100	100	100	–	–	–	–	–	–	–	–	–
Cc1cc(-c2ccc(Cl)cn2)cc(C)c1C1C(=O)CC(CC(=O)N(C)C(C)C)C1=O (stereo not drawn) [Compound B371]	–	–	–	–	–	–	–	–	100	100	100	90	100	90	100	100	–
Cc1cc(-c2ccc(Cl)cn2)cc(C)c1C1C(=O)CC(CC(=O)NCc2cccc(Br)c2)C1=O (stereo not drawn) [Compound B359]	–	–	–	–	–	–	–	–	100	80	90	90	100	70	90	90	–
C#CC(C)(C)NC(=O)CC1CC(=O)C(c2c(C)cc(C#CC)cc2C)C1=O (single isomer, unassigned) [Compound A56]	100	100	100	100	100	90	90	90	–	–	–	–	–	–	–	–	–
Cc1cc(-c2ncc(Cl)cc2F)cc(C)c1C1C(=O)CC(CC(=O)NC2CC2)C1=O (stereo not drawn) [Compound A45]	100	100	100	100	100	100	100	100	–	–	–	–	–	–	–	–	–
C#CCNC(=O)CC1CC(=O)C(c2c(C)cccc2CC)C1=O (stereo not drawn) [Compound B151]	–	–	–	–	–	–	–	–	–	–	–	–	–	–	–	–	pest or weed control at 250 g/ha ([1]; post-emergence, 360 h, 250 g/ha, post-emergence, 15 DAA, visual assessment (100%=total damage, 0%=no damage), read-out: Post-emergence herbicidal activity (percentage phytotoxicity) ECHCG POST): 100%; pest or weed control at 250 g/ha ([1]; pre-emergence, 480 h, 250 g/ha, pre-emergence, 20 DAA, visual assessment (100%=total damage, 0%=no damage), read-out: Pre-emergence herbicidal activity (percentage phytotoxicity) ECHCG PRE): 100%; pest or weed control at 250 g/ha ([2]; post-emergence, 360 h, 250 g/ha, post-emergence, 15 DAA, visual assessment (100%=total damage, 0%=no damage), read-out: Post-emergence herbicidal activity (percentage phytotoxicity) ALOMY POST): 100%; pest or weed control at 250 g/ha ([2]; pre-emergence, 480 h, 250 g/ha, pre-emergence, 20 DAA, visual assessment (100%=total damage, 0%=no damage), read-out: Pre-emergence herbicidal activity (percentage phytotoxicity) ALOMY PRE): 100%; pest or weed control at 250 g/ha ([3]; post-emergence, 360 h, 250 g/ha, post-emergence, 15 DAA, visual assessment (100%=total damage, 0%=no damage), read-out: Post-emergence herbicidal activity (percentage phytotoxicity) AVEFA POST): 100%; pest or weed control at 250 g/ha ([3]; pre-emergence, 480 h, 250 g/ha, pre-emergence, 20 DAA, visual assessment (100%=total damage, 0%=no damage), read-out: Pre-emergence herbicidal activity (percentage phytotoxicity) AVEFA PRE): 90%; pest or weed control at 250 g/ha ([4]; post-emergence, 360 h, 250 g/ha, post-emergence, 15 DAA, visual assessment (100%=total damage, 0%=no damage), read-out: Post-emergence herbicidal activity (percentage phytotoxicity) LOLPE POST): 90%; pest or weed control at 250 g/ha ([4]; pre-emergence, 480 h, 250 g/ha, pre-emergence, 20 DAA, visual assessment (100%=total damage, 0%=no damage), read-out: Pre-emergence herbicidal activity (percentage phytotoxicity) LOLPE PRE): 90%
